Structure (SMILES)	melting point [°C]
c1ccc2cc(-c3ccc(-c4nc(-c5ccc(-c6ccc7ccccc7c6)cc5)n(-c5cccc6ccccc56)n4)cc3)ccc2c1	> 250
Oc1ccc(C2COc3c(ccc(O)c3O)C2)cc1 (stereo not given)	225 to 226
O=[N+]([O-])c1ccc(-c2scc3c2OCCO3)cc1	184 to 186
CCCCCCCCCCCCCCCCCCC(N=C(c1ccccc1)c1ccccc1)C(=O)OCC (stereo not given)	62 to 65
CC(Br)C(=O)c1cc([N+](=O)[O-])cs1 (stereo not given)	82.5 to 83
Cc1c2n(c3ccccc13)C(=O)C(Cc1c[nH]cn1)CC2 (stereo not given)	156 to 157
COc1cccc2c1CC(C(=O)NCCOc1ccc(CC(=O)O)cc1)N2S(=O)(=O)c1ccc(-c2cccc(C(F)(F)F)c2)cc1 (stereo not given)	96
O=C1CCC(N2C(=O)c3cccc(CNC(=O)c4ccc(F)c(C(F)(F)F)c4)c3C2=O)C(=O)N1 (stereo not given)	171 to 173
CC(=O)NC(C)Cc1ccc(CCCC(=O)O)cc1 (stereo not given)	114 to 117
CSc1c(Cl)c(-c2cc(SC(C)C(=O)O)c(Cl)cc2Cl)nn1C (stereo not given)	180
C[C@@H](OC(=O)c1cc([N+](=O)[O-])cc([N+](=O)[O-])c1)[C@@]1(c2ccc(F)cc2F)CO1	104 to 107
CCOn1c(OC)n[nH]c1=O	57
Cc1cc(NCC(C)C)c(N)c2nnnn12	159 to 162
O=C1CCCCC1c1cncc(Br)c1 (stereo not given)	67 to 69
CC[C@@H](C(N)=O)n1nnc2cc(Br)ccc21	205 to 207
CC=C(NC(=O)CCC1CCCC1)C(=O)O	180 to 182
O=C1c2ccccc2CN1C1CCN(CCCCC2(C(=O)NCC(F)(F)F)c3ccccc3-c3ccccc32)CC1	143 to 146
O=C(CCl)Oc1ccccc1O	32 to 35
NC(=O)c1cn(CCO)nc1[N+](=O)[O-]	148 to 150
CONC(=O)Nc1ccc(-c2sc3c(c2CNC(C)c2ccccc2)c(=O)n(-c2ccc(F)cn2)c(=O)n3Cc2c(F)cccc2F)cc1 (stereo not given)	128 to 130
NCCCNc1ccc(NCCCN)c2c1C(=O)c1c(O)ccc(O)c1C2=O	115 to 130
CCCOc1ccc2c(c1)C(c1ccc(OC)cc1OCC(=O)O)CC2c1ccc2c(c1)OCO2 (stereo not given)	177 to 178
Cc1nn(CCO)c(-c2ccc(F)cc2)c1-c1ccc2c(c1)NC(=O)CO2	178 to 179

Structure (SMILES)	melting point [°C]
O=C1NC(O)c2cc(Br)ccc21 (stereo not given)	258 to 261
CCOC(=O)[C@@H]1C[C@@H](O)CN1S(C)(=O)=O	111 to 113
CNC(=O)Oc1ccc2c(c1)c1c(n2C)CC(CO)C1 (stereo not given)	137 to 138
COc1cccc(OC)c1C(=O)P(=S)(CC(C)C)C(=O)c1c(OC)cccc1OC	145 to 147
COc1ccc2c(c1)Oc1cscc1C(N1CCN(C)CC1)=N2	188 to 189
CC(C#Cc1ccc(Oc2ccc(F)cc2)s1)N(O)C(N)=O (stereo not given)	149 to 150
Clc1ccc(N2CCN(Cc3c[nH]c4ncccc34)CC2)cc1	226 to 227
Cc1ccc(C(=O)c2cnn3c(-c4cccc(NC(=O)C5CC5)c4)ccnc23)s1	243 to 245
CCOCc1nc2c(N)nc3cccnc3c2n1CCCC(=O)N1CCOCC1	156 to 157
C=CCOC(=O)c1cc(C23CC4CC(CC(C4)C2)C3)c(OC)cc1F	101 to 102
Cc1oc2c(-n3c(=O)cc(C(F)(F)F)n(C)c3=O)ccc(Cl)c2c1NO	134 to 136
Cc1nc2cc(C34CC5CC(CC(C5)C3)C4)cc(-c3cccc(C=C4SC(=S)NC4=O)c3)c2o1	310
O=C(O)CCC(=O)N[C@H]1C[C@H](C(=O)O)Nc2cc(Cl)cc(Cl)c21 (relative stereo)	221 to 223
CN(C(=O)C(C)(C)c1cc(C(C)(C)C)c(O)c(C(C)(C)C)c1)C1CC(C)(C)NC(C)(C)C1	168 to 173
O=S(=O)(c1ccc(Cl)cc1)C(c1ccncc1)C1CCCC1 (stereo not given)	133 to 135
CSc1ccc2c(c1)CC(C)(C)C(=O)N2	154
CC(C)c1cccc(NC(=O)[C@H](Br)C(C)C)c1O	108 to 109
CC1COc2cc(-c3ccco3)ccc2C1=NO (stereo not given)	175 to 177
CN1CCN(c2ccc(S(=O)(=O)Oc3c(Cl)cc(Cl)cc3Cl)cc2)C1=O	185 to 187
N#Cc1cnc2c(sc3ccc([N+](=O)[O-])cc32)c1Nc1ccc(Cl)cc1Cl	210 to 213
COCCN(C)Cc1c(-c2ccc(NC(=O)NOC)cc2)sc2c1c(=O)n(-c1ccc3c(c1)OCCO3)c(=O)n2Cc1c(F)cccc1F	155 to 156
COC(=O)c1sccc1S(=O)(=O)NC(=O)Nc1nc(C)cc(OC(F)F)n1	178 to 179

The remaining lines, values ahead:

melting point [°C]	Structure (SMILES)
100 to 102	O=Cc1cc(OCc2ccccc2)c(OCc2ccccc2)cc1Cl
168 to 170	CCOC(=O)CNc1cc(Cl)nc(NCc2ccc(Cl)cc2)n1
243 to 245	Nc1ccc(-c2cc3c(N4CCCc5ccccc54)ncnc3[nH]2)cc1
299	COc1cc2ncnc(Nc3cccc(Br)c3)c2cc1O
219 to 220	Cn1c2cc(Cl)ccc2c2c(CO)nn(-c3ccccc3)c(=O)c21
86 to 89	Cc1nnc(Cl)c(-c2c(F)cc(F)cc2F)c1-c1ccc2ccccc2c1
92 to 93	ClCCCCOc1ccccc1/C=C/c1nc2ccccc2o1
198	CC(C)CC1(Cn2cnc3ccccc32)Sc2[nH]c(=O)n(C)c(=O)c2C1Sc1cccs1 (stereo not given)
246 to 252	Oc1cc2c3ccc(O)c(O)c3n(CCCc3ccccc3)c2cc1O
147 to 149	COc1ccc(COc2cc(NC(C)=O)c(Cl)cc2C(=O)CCCCCl)cc1
185 to 186	COc1cc(Oc2ccc(S(C)(=O)=O)nc2)cc2cc(C3=NCC(CC(=O)NC[C@H](C)O)S3)[nH]c12 (stereo not given in full)
72 to 74	O=S(=O)(c1ccccc1)C(F)(F)C(O)c1ccco1 (stereo not given)
133 to 135	CCc1cc2c(-c3ccccc3Cl)c(NC(=O)C=Cc3cc(OC)c(OC(C)=O)c(OC)c3)cnc2s1
104 to 105	Fc1ccccc1C1=NCc2ccccc2-c2ccc(Br)cc21
191 to 195	O=C(O)CC1(c2ccc(Cl)c(Cl)c2)CNC(=O)C1 (stereo not given)
115 to 118	O=CNCC1c2ccccc2C=Cc2ccccc21
51	CC(C)(C)c1ncc(OCc2ccccc2)c(Cl)n1
46 to 47	Cc1ccnn1-c1ccc(Cl)c(Cl)c1
285	Cc1nc2nc[nH]c2c2nc(-c3ccccc3)nn12
158 to 159	Cc1oc(-c2ccccc2)nc1COc1ccc(CON=C(CCC(=O)O)c2cccnc2)cc1
79 to 81	CN(C)c1c(-c2ccccc2)sc2ccc(Cl)cc12
128 to 130	Nc1ccc(Oc2c(Cl)cc(C(F)(F)F)cc2Cl)cc1
158 to 160	CCCCc1nc(Cl)c(C(=O)O)n1Cc1ccc2oc(-c3ccccc3C#N)c(OC)c2c1
123 to 124	O=S(=O)(Cc1ccccc1)NCCCCOc1ccc(-n2ccnc2)cc1
63 to 65	COc1ccc2c(c1OC)CCOC2CCl (stereo not given)
84 to 87	CC(C)c1nc(-c2cc3cc(OCCNC[C@H](O)c4cccc(Cl)c4)ccc3o2)no1
121 to 122	CCNC(=O)c1c(Br)cccc1[Si](C)(C)C
62 to 63	CCCCCCCCCCCCCCC(CCC(=O)OCc1ccccc1)C(=O)O (stereo not given)

melting point [°C]	Structure (SMILES)
102 to 108	CCOCCOc1ccc(-c2ccc3c(c2)C=C(C(=O)OC)CCN3)cc1
192 to 196	O=C1N2CCc3ccsc3C23SC1(c1ccccc1)CC3[N+](=O)[O-] (stereo not given)
86 to 87	COC1(C(=O)Nc2ccc(OC(C)C)c(Cl)c2)CC1
94 to 95	CCNC(=O)c1c(Cl)cccc1[Si](C)(C)CC
130	O=[N+]([O-])c1ccc2snc(-c3ccccc3)c2c1
138 to 140	C#CCc1c(C)nc2c(OCc3ccccc3C)cccn12
92 to 94	CC(=O)c1ccc(-c2ccc(F)cc2F)c(F)c1
232 to 234	CC(C)(C)c1c[nH]c(S)n1
126 to 128	Cc1nccn1CCCNC(=O)c1cccnc1Cl
248 to 249	O=C(O)c1cc(=O)cc(-c2cccc3ccccc23)o1
127 to 130	c1ccc(-c2cn3ncsc3n2)cc1
271 to 272	O=C(O)c1cccc2c(-c3ccccc3)c([N+](=O)[O-])oc12
195	COc1ccc(Cl)cc1C(=O)NCCc1ccc(-c2ccc(F)cc2)c(S(N)(=O)=O)c1
177 to 179	O=C1NN=C(c2ccccc2)c2c[nH]c3cccc1c23
225 to 227	c1ccc(Oc2ccc3nnn(Cc4ccc5ncccc5c4)c3n2)cc1
171	O=[N+]([O-])c1cc(Cn2ccnc2)ccc1NCc1cccnc1
138 to 140	Cc1onc(-c2ccccc2)c1-c1ccc(S(=O)(=O)NC(=O)CC(C)(C)SN=O)cc1
115 to 123	CC(C)C(OC(=O)NC(C)(Cc1ccccc1)C(=O)NC(C)(C)c1ccccc1)c1ccccc1 (stereo not given)
159 to 161	COc1cc(-c2ccc(O)cc2)ccc1C=O
139 to 141	CC(C)(C)OC(=O)Nc1ccc2ccc(C#N)cc2c1Br
> 300	CC(C)(C)c1cnc(C(=O)Nc2cc(-c3cc(Nc4ccc(-c5ccncc5)nn4)c(=O)[nH]n3)ccc2F)cn1
218 to 219	Nc1nc(N)c(-c2cccc(Cl)c2Cl)c(C(F)(F)F)n1
> 250	O=C1c2ccccc2C(=O)N1Cc1cccc(CN2C(=O)c3ccccc3C2=O)n1
50 to 70	CCCCNS(=O)(=O)C[C@@H](O)C(O)[C@@H](CC1CCCCC1)NC(=O)[C@H](CC(C)C)NC(=O)OCc1ccccc1 (relative stereo)
148 to 150	CCCCOc1ccc2c(c1)CCC(C(=O)O)=C2
104 to 106	CCC(CC)Nc1nc(N)nc(C(C)(C)F)n1
195	N#CC(Nc1ccccc1[N+](=O)[O-])c1c(Cl)cccc1Cl (stereo not given)

— a melting point compilation (Tetko et al.; mined from patent text by program, amines drawn as free bases though some values may be those of a salt)
